Residue numbers refer to the chain shown, from its start.
What was measured:
[1] = target: T1, rat olfactory CNG (OLF) channel (Rattus norvegicus, UniProt Q00195); test: inside-out patch recording, cGMP dose-response; format: cell-based
T1 sequence (Q00195 1-664): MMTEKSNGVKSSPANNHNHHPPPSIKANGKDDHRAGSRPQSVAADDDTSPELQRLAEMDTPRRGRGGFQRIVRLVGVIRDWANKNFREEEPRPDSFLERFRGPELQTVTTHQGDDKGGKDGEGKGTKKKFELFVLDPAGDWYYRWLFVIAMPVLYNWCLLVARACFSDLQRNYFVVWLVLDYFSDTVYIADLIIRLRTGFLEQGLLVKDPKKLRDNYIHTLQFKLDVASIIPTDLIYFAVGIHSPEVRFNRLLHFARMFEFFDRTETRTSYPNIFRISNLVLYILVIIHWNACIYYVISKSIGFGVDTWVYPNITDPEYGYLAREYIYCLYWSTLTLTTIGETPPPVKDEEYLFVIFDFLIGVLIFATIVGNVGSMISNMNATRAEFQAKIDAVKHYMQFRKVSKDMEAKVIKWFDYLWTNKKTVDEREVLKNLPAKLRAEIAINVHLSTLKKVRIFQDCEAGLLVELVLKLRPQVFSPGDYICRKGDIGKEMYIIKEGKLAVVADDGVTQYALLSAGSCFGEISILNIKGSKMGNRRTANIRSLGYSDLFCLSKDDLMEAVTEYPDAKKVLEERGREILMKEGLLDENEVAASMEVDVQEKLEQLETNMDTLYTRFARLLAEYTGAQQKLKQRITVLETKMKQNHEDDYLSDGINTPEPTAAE

[2] = target: T2, rat olfactory CNG (OLF) channel (Rattus norvegicus, UniProt Q00195, W332Y); test: inside-out patch recording, cGMP dose-response; format: cell-based
T2 sequence (Q00195 1-664 W332Y): T1 sequence (Q00195 1-664) with W332Y

`Nc1nc2c(ncn2[C@@H]2O[C@@H]3COP(=O)(O)O[C@H]3[C@H]2O)c(=O)[nH]1` [cGMP] was tested, and the EC50 [1] was 2.47 µM and the EC50 [2] was 17.7 µM.
